The text below walks through data of publication PMC8997437, “Apelin Resistance Contributes to Muscle Loss during Cancer Cachexia in Mice” (Cancers, 2022).

Experiment [1] concerns C2C12 myotubes. Kind of experiment: Myotube diameter measurement (dexamethasone-induced atrophy). The experiment is classed as cell-based, mouse. The following applies: four day-differentiated myotubes, 24 h; for protection of myotube diameter from dexamethasone-induced atrophy: 10 μM dexamethasone plus 10 nM peptide, n = 261–297.
Description: C2C12 (ATCC, Manassas, VA, USA), a myoblast cell line from the C3H mouse strain, was grown in DMEM (Dulbecco’s Modified Eagle’s Medium, Gibco, Waltham, MA, USA) with fetal bovine serum (FBS) (Euroclone, Pero, Italy) and 2 mM L-glutamine, (BioWest, Nuaillè, France) and maintained in culture at 37 °C with 5% CO2. Myoblasts differentiate into myotubes when they reached 80% confluence and were cultured for four days in DMEM, 2 mM L-glutamine, horse serum (HS) (Euroclone), at 37 °C and 8% CO2. The differentiation medium was changed every two days.
Pictures of myotubes were acquired with an Olympus Microscope IX71 (10× magnification, 10× ocular lens, Olympus, Shinjuku, Japan) with Cell F (2.6 Build1210, Olympus) imaging software for Life Science microscopy (Olympus Soft Imaging solution GmbH, Munster, Germany). Myotube diameters were measured in blind conditions using ImageJ software (National Institutes of Health, Bethesda, MA, USA). For each photo 10–11 myotubes were measured, calculating the mean of three diameters per myotube, for a total of at least 100 cells per condition.
Four day-differentiated myotubes were exposed for 24 h to vehicle (Ctrl) or 10 μM dexamethasone (Dexa) and representative brightfield images are shown. […] We measured in blind the diameter of four day-differentiated myotubes exposed for 24 h to vehicle or 10 μM Dexamethasone (DEXA) in combination with vehicle or 10 nM apelin peptides of different lengths. […] Kruskal–Wallis test, **** p ≤ 0.0001, n = 261–297.
Experiment [2] concerns APJ. The following applies: cited from earlier work.
Experiment [3] relates to cAMP-responsive elements (CRE). Kind of experiment: CRE-luciferase (cAMP) reporter assay in transfected myoblasts, forskolin induction. The experiment is classed as cell-based, mouse. The following applies: 50 μM forskolin, 5 h. The source says:
To test whether D-apelin still binds APJ, ultimately lowering cAMP levels, we transfected myoblasts with a reporter plasmid with the gene for FLuc under the control of cAMP-responsive elements (CRE). […] As expected, forskolin induced the CRE-related bioluminescent signal more than 20-fold (Figure 4C).

Experiment [4] has as its system C2C12 myotubes. Kind of experiment: Total protein content of myotubes. It is filed as cell-based, mouse. The following applies: 10 μM dexamethasone, n = 6.
Description: Total proteins were extracted from myotubes and muscles and quantitated as in [31]. Proteins were separated by electrophoresis on 4–20% sodium dodecyl sulfate-polyacrylamide gel electrophoresis (SDS-PAGE) (Bio-Rad, Hercules, CA, USA) and transferred to a polyvinylidene difluoride membrane (GE Healthcare, Chicago, IL, USA), which was then saturated for 2 h at RT with 5% bovine serum albumin (BSA) or milk in TBS-T buffer (20 mM Tris, 150 mM NaCl and 0.1% Tween-20) (Sigma). […] Band intensities were analyzed using ImageJ software.
Experiment [5] deals with MuRF1, atrogin-1 and apelin mRNA in myotubes. Kind of experiment: Q-PCR of atrophy-related genes in myotubes. The experiment is classed as cell-based, mouse. The conditions noted are these: 10 μM Dexa, 24 h, TBP housekeeping, n = 6.
Description: Total RNA was isolated from cells or muscles with QIAzol Lysis Reagent (Qiagen, Hilden, Germany) and miRNeasy Kit (Qiagen), as in [31]. RNA concentration and purity were measured in a spectrophotometer (NanoDrop 1000, ThermoFisher Scientific, Waltham, MA, USA).
mRNA/μg in muscle was analyzed using TaqMan reverse transcription reagents (Life Technologies) or SYBR Green (Qiagen). β-Glucuronidase (GUSB), or Tata binding protein (TBP), or Importin 8 (IPO8), or 18S ribosomal RNA (18S) were used as housekeeping genes (HK). To normalize for three HK, we used the ratio between the arithmetic average and the geometric average of the ng of cDNA of each gene, as described in [32].
TBP was used as housekeeping gene.
The subject of experiment [6] is MuRF1 promoter. Kind of experiment: MuRF1 promoter-Firefly luciferase reporter assay in myoblasts. It is filed as cell-based, mouse. The conditions noted are these: 10 μM dexamethasone, 24 h, normalised to RLuc, n = 12.
Description: We used C2C12 myoblasts grown in a 24-well plate and transfected with pLKO or preproapelin-expressing plasmids with murine MuRF1 promoter-FLuc plasmid, and pRL-TK plasmid (Promega) using Lipofectamine 2000 (Life Technologies Europe BV, Carlsbad, CA, USA). The next day, they were treated with vehicle or 10 μM dexamethasone for 24 h. Luciferase activities were measured using the Dual-Luciferase Reporter Assay System (Promega) and a luminometer (Glomax 20/20 single tube luminometer, Promega).
Myoblasts were transfected with a plasmid in which Firefly luciferase (FLuc) is under the control of a MuRF1 promoter, with another for Renilla luciferase (RLuc), under the control of thymidine kinase promoter to normalize the data (ratio 50:1) and with the empty vector pLKO, as control, or a preproapelin-expressing plasmid (Apln). After 24 h, myoblasts were treated with vehicle or with 10 μM Dexa for 24 h. […] Ordinary one-way ANOVA, ** p ≤ 0.01, **** p ≤ 0.0001, n = 12.

Entries after “also recorded” stand apart in the source; their conditions may differ.

[Pyr1]-Apelin 13 [L-apelin 13]: the “protection of myotube diameter from dexamethasone-induced atrophy” value in experiment [1] is reported as “fully protects myotubes from dexamethasone-induced atrophy; also recorded: fully preserved myotube diameter”. Also, the “affinity for APJ” value in experiment [2] is reported as “nanomolar affinity”.

For the molecule “apelin 36: apelin isoform of 36 amino acids binding APJ (Tocris) (LVQPRGSRNGPGPWQGGRRKFRRQRPRLSHKGPMPF; Apelin-36; UniProt Q9ULZ1 42-77, looked up)”, in experiment [1] (10 nM peptide with vehicle), the “effect of peptide alone on myotube diameter” value is listed as “reduced myotube diameters”. Besides, in experiment [1], the “protection of myotube diameter from dexamethasone-induced atrophy” value is given as “Unlike apelin 36, apelin 13 fully protects”.

Take `C=C[C@@]1(C)CC(=O)[C@]2(O)[C@@]3(C)[C@@H](O)CCC(C)(C)[C@@H]3[C@H](O)[C@H](OC(C)=O)[C@@]2(C)O1` [forskolin]: the “induction of CRE-related bioluminescent signal” value in experiment [3] is “more than 20 fold”.

As to `C[C@@H]1C[C@H]2[C@@H]3CCC4=CC(=O)C=C[C@]4(C)[C@@]3(F)[C@@H](O)C[C@]2(C)[C@@]1(O)C(=O)CO` [dexamethasone, Dexamethasone], the “reduction of total protein content” value in experiment [4] is listed as “about 25%”. For the same molecule, in experiment [5], the “apelin expression (mRNA)” value is listed as “halved”, the “increase of MuRF1 expression (mRNA)” value is on record as “about 3 fold” and the “increase of atrogin-1 expression (mRNA)” value is recorded as 3 fold. Besides, the “increase of FLuc expression under MuRF1 promoter” value in experiment [6] is on record as about 15 fold.
